Measurements reported in patent publication US11192849B2, “Compounds, compositions, and methods for modulating ferroptosis and treating excitotoxic disorders” (THE TRUSTEES OF COLUMBIA UNIVERSITY IN THE CITY OF NEW YORK, priority 2013, dated 2021).
pEC50: −log10 of the molar value. Where two headings read alike, the source gives them in different places.

Key:
[1] = Metabolic stability in mouse liver microsomes; format: in vitro ADME; settings: for Elimination rate constant (k) / Intrinsic Clearance (CLint) (mL/min/g liver): Mouse; for half-life at 0.5 μM: mouse, liver microsomes
Method: Test compounds (0.5 μM) were incubated at 37° C. for up to 45 minutes in 50 mM of potassium phosphate buffer (pH 7.4) containing mouse liver microsomal protein (0.5 mg/mL) and an NADPH generating system (0.34 mg/mL β-nicotinamide adenine dinucleotide phosphate (NADP), 1.56 mg/mL glucose-6-phosphate, 1.2 units/mL glucose-6-phosphate dehydrogenase). At 0, 5, 15, 30, and 45 minute intervals, an aliquot was taken and quenched with acetonitrile (ACN) containing internal standard. No-cofactor controls at 45 minutes were prepared. Following completion of the experiment, the samples were analyzed by LC-MS/MS.
The half-life (t1/2) was calculated using the following equation: t1/2=0.693/k Where, k is the elimination rate constant of test compounds obtained by fitting the data to the equation: C=initial×exp(−k×t) Intrinsic clearance (Clint) is calculated as liver clearance from the half-life using the following equation: […]
0.5 mg protein/mL incubation
Ethoxycoumarin was used as a control.

HT-1080 cells = test: Inhibition of erastin (10 μM)-induced death in HT-1080 cells (Alamar Blue); format: cell-based, human; settings: for pEC50: Homo sapiens, read-out: EC50
Method: Cell viability was typically assessed in 384-well format by Alamar Blue (Invitrogen) fluorescence (ex/em 530/590) measured on a Victor3 platereader (Perkin Elmer, Waltham, Mass.). In some experiments, Trypan Blue dye exclusion counting was performed using an automated cell counter (ViCell, Beckman-Coulter Inc., Brea, Calif.). Cell viability in test conditions is reported as a percentage relative to the negative control treatment.
The ability of various compounds disclosed herein to inhibit death in erastin (10 μM)-treated HT-1080 cells were tested. Cell viability was assessed by Alamar Blue. EC50 values (nM) were computed from dose response curves.
HT-1080 cells are cultured in DMEM containing 10% fetal bovine serum, 1% supplemented non-essential amino acids and 1% pen/strep mixture (Gibco) and maintained in a humidified environment at 37° C. with 5% CO2 in a tissue culture incubator. 1,000 HT-1080 cells are seeded per well in duplicate 384-well plates (Corning) using a BioMek FX liquid handling robot (Beckman Coulter). The next day, the medium is replaced with 36 μL of medium containing 10 μM erastin with 4 μL of medium containing a dilution series (previously prepared) of DMSO, Fer-1 (positive control) or Fer-1 analogs. 24 hours later, 10 μL Alamar Blue (Invitrogen) cell viability solution is added to the growth media to a final concentration of 10%. Cells are incubated a further 6 hours and then the Alamar Blue fluorescence intensity recorded using a Victor 3 platereader (PerkinElmer)(ex/em 530/590). All experiments are performed at least twice and the background (no cells)-subtracted Alamar Blue values for each combination are averaged between replicates.

[2] = In vitro stability study in mouse plasma; format: in vitro ADME
Method: The assay was conducted by incubating 1 μM of test compounds with Mouse Plasma (Strain […]) for a series of incubation times (0, 15, 30, 60, 120 minutes) at various temperatures (wet ice, room temperature, or 37° C.) with 5% CO2 and shaking (130 rpm). At each time point, the samples were quenched with 200 μL of stop solution containing an internal standard and kept on ice. The samples were analysed by LC-MS/MS.

[3] = pH 7.4, Mouse, Compound Conc = 0.5 μM, read-out: Half life (t½)
[4] = HT-1080, Table 1 (Example 10), erastin (10 μM)-treated HT-1080 cells

Row | Compound | Elimination rate constant (k) ([1]; Compound Conc = 0.5 μM) | Intrinsic Clearance (CLint) (mL/min/g liver) ([1]; Compound Conc = 0.5 μM) | half-life at 0.5 μM [1, 3] [h] | pEC50 (HT-1080 cells; [4]) | Peak Area Ratio ([2]; Room Temperature, 0 min) | Percent Remaining ([2]; Room Temperature, 0 min) [%] | Peak Area Ratio ([2]; Room Temperature, 15 min) | Percent Remaining ([2]; Room Temperature, 15 min) [%] | Peak Area Ratio ([2]; Room Temperature, 30 min) | Percent Remaining ([2]; Room Temperature, 30 min) [%] | Peak Area Ratio ([2]; Room Temperature, 60 min) | Percent Remaining ([2]; Room Temperature, 60 min) [%] | Peak Area Ratio ([2]; Room Temperature, 120 min) | Percent Remaining ([2]; Room Temperature, 120 min) [%] | Peak Area Ratio ([2]; Wet Ice, 0 min) | Percent Remaining ([2]; Wet Ice, 0 min) [%] | Peak Area Ratio ([2]; Wet Ice, 15 min) | Percent Remaining ([2]; Wet Ice, 15 min) [%] | Peak Area Ratio ([2]; Wet Ice, 30 min) | Percent Remaining ([2]; Wet Ice, 30 min) [%] | other results
1 | CCOc1ccc2ccc(=O)oc2c1 [Ethoxycoumarin, reference compound] | 0.2661 | 27.94 | 0.0433 | – | – | – | – | – | – | – | – | – | – | – | – | – | – | – | – | – | –
2 | CCOC(=O)c1ccc(NC23CC4CC(CC(C4)C2)C3)c(NCc2ccccc2)c1 [SRS15-23, ethyl 3-(benzylamino)-4-(1-adamantylamino)benzoate] | – | – | – | 7.64 | – | – | – | – | – | – | – | – | – | – | – | – | – | – | – | – | –
3 | CCOC(=O)c1ccc(NC23CC4CC(CC(C4)C2)C3)c(NCc2ccncc2)c1 [SRS15-24, ethyl 4-(1-adamantylamino)-3-((pyridin-4-ylmethyl)amino)-benzoate] | – | – | – | 8.07 | – | – | – | – | – | – | – | – | – | – | – | – | – | – | – | – | –
4 | CCOC(=O)c1ccc(NC23CC4CC(CC(C4)C2)C3)c(/N=C\c2cncnc2)c1 [SRS15-72, ethyl 4-(adamantylamino)-3-(pyrimidin-5-ylmethyleneamino)benzoate] | 0.0045 | 0.47 | 2.57 | 6.54 | 2.0737 | 100.0 | 1.1581 | 55.8 | 0.5320 | 25.7 | 0.2502 | 12.1 | 0.0841 | 4.1 | 2.6066 | 100.0 | 2.0815 | 79.9 | 1.6279 | 62.5 | Peak Area Ratio ([2]; Wet Ice, 60 min): 1.4397; Percent Remaining ([2]; Wet Ice, 60 min): 55.2%; Peak Area Ratio ([2]; Wet Ice, 120 min): 1.2446; Percent Remaining ([2]; Wet Ice, 120 min): 47.7%
5 | CCOC(=O)c1ccc(NC23CC4CC(CC(C4)C2)C3)c(NCc2cncnc2)c1 [SRS16-41, ethyl 4-(adamantylamino)-3-(pyrimidin-5-ylmethylamino)benzoate] | 0.3149 | 35.9 | 0.0333 | 7.80 | 5.8556 | 100.0 | 0.6709 | 11.5 | 0.0885 | 1.5 | 0.0206 | 0.4 | 0.0159 | 0.3 | 6.9233 | 100.0 | 5.7631 | 83.2 | 4.7595 | 68.7 | Peak Area Ratio ([2]; Wet Ice, 60 min): 3.4547; Percent Remaining ([2]; Wet Ice, 60 min): 49.9%; Peak Area Ratio ([2]; Wet Ice, 120 min): 1.9564; Percent Remaining ([2]; Wet Ice, 120 min): 28.3%
6 | CC(C)OC(=O)c1ccc(NC23CC4CC(CC(C4)C2)C3)c(/N=C\c2cncnc2)c1 [SRS16-80, isopropyl 4-(adamantylamino)-3-(pyrimidin-5-ylmethyleneamino)benzoate] | 0.0089 | 0.94 | 1.29 | 6.23 | – | – | – | – | – | – | – | – | – | – | – | – | – | – | – | – | fold lower potency caused by the imine (HT-1080 cells; HT-1080, erastin (10 μM)): about 6 fold; pEC50 (HT-1080 cells; HT-1080, Example 15, erastin (10 μM), HT-1080): ~6.52; half-life at 0.5 μM ([1]; pH 7.4, stated in the text of Example 15, read-out: T1/2 in mouse liver microsomes): 2.57 h; mouse plasma stability [2]: rapidly hydrolyzed; Percent Remaining ([2]; 37° C., 0 minutes): 100.0%; Sum of Peak Area Ratios ([2]; 37° C., 0 minutes): 0.382; Percent Remaining ([2]; 37° C., 15 minutes): 23.8%; Sum of Peak Area Ratios ([2]; 37° C., 15 minutes): 0.0911; Percent Remaining ([2]; 37° C., 30 minutes): 9.9%; Sum of Peak Area Ratios ([2]; 37° C., 30 minutes): 0.0379; Percent Remaining ([2]; 37° C., 60 minutes): 4.5%; Sum of Peak Area Ratios ([2]; 37° C., 60 minutes): 0.017; Percent Remaining ([2]; 37° C., 120 minutes): 2.5%; Sum of Peak Area Ratios ([2]; 37° C., 120 minutes): 0.0095; half-life at 1 μM ([2]; C57BL/4, mouse, plasma, read-out: T1/2 in mouse plasma): < 0.25 h
